Where a name gives a salt, the structure may show the parent alone.
How the values were obtained:
hCav1.2/β2/α2δ channels = hCav1.2/β2/α2δ channels (Homo sapiens, UniProt Q13936); experiment: CaV1.2 manual patch clamp, CHO cells (CR-CLE); format: cell-based
Source text: Stocks were maintained in cryogenic storage. […] Each culture dish was identified by a notation of channel name, passage number, and date.
Rationale for Selection of Ion Channel and Expression Systems: Reduction of ICa,L is associated with action potential shortening in atrial fibrillation (Van Wagoner, et al., Circ Res 85:428-436 (1999)) while augmentation of ICa,L current may produce action potential prolongation (Ahmmed, et al., Circ Res 86:558-570 (2000)) and early after depolarizations (January, et al., Circ Res 62:563-571 (1988)). ICa.L is produced by the combination of calcium channel subunits encoded by CACNA1C (α1-subunit), CACNB2 (β2-subunit) and CACNA2D1 (α2δ-subunit) cDNAs.
• Organism: Cricetulus griseus • Tissue: Ovary; transfected with human CACNA1C • (α1-subunit), CACNB2 (β2-subunit), and • CACNA2D1 (α2δ-subunit) cDNAs • Morphology: Epithelial • Age/Stage: Adult • Source Strain: ATCC, Manassas, VA • Source Substrain: CR-CLE
CHO Cell Culture Procedures: CHO cells were stably co-transfected with human CACNA1C (α1-subunit), CACNB2 (β2-subunit), and CACNA2D1 (α2δ-subunit) cDNAs. Stable transfectants were selected by coexpression of the cDNAs with antibiotic resistance genes for blasticidin, hygromycin, G418, and zeocin. Selection pressure was maintained by including these antibiotics in the culture medium. Cells were cultured in Ham's F12 Medium supplemented with 10% fetal bovine serum, penicillin-streptomycin (100 units/mL), blasticidin (10 μg/mL), zeocin (400 μg/mL), G418 (250 μg/mL) and hygromycin (250 μg/mL). To avoid Ca^2+-induced toxicity, verapamil (3 μmol/L) was added to the cultured cells.
hCav1.2/β2/α2δ-CHO is a tetracycline-inducible cell line. To induce expression, tetracycline at a final concentration of 1 μg/mL was added to media lacking the selection antibiotics. Currents were recorded greater than 16 hours post-induction.
Treatment Groups: All experiments were performed at room temperature. Each cell acted as its own control.
Each concentration was tested in at least three cells (n≥3).
Positive Control Group: The positive control article nifedipine (Sigma-Aldrich) was tested in two cells (n=2) at 0.1 μM. Previous results have shown that nifedipine at 0.1 μM inhibits hCav1.2 current by approximately 90%.
Electrophysiological Procedures: Cells were superfused with vehicle control solution. Micropipette solution for whole cell patch clamp recordings was composed of (mM): Cs-methanesulfonate (MES), 130; TEA-Cl, 20, MgCl2, 1; EGTA, 10; Mg-ATP, 4; Tris-GTP, 0.3, phosphocreatine di-(Tris) salt, 14, creatine phosphokinase, 50 U/mL, and HEPES, 10; pH adjusted to 7.2 with N-methyl-D-glucamine or CsOH. Micropipette solution was prepared in batches, aliquoted, stored frozen, and a fresh aliquot thawed each day. […] Before digitization, current records were low-pass filtered at one-fifth of the sampling frequency.
Experimental Procedures: Onset and steady inhibition was evaluated at a test potential of 0 mV (150 ms duration), repeated at ten-second intervals from a holding potential of −40 mV. Peak current was measured during the step to 0 mV. Peak current was monitored until a new steady state was achieved. hCav1.2 current was monitored until a new steady state was achieved and a steady state was maintained for at least 20 s before applying test article or positive control article formulations. […]
(§1) Nonlinear least squares fits were solved with the Solver add-in for Excel 2003 or later (Microsoft, Redmond, WA) and the IC50 was calculated.

[1] = biological target: T1, late hNav1.5 channel current (Homo sapiens, UniProt Q14524); experiment: NaV1.5 (for pimavanserin): late hNav1.5 current, HEK-293, ATX-II activated (CR-CLE); format: cell-based
Description: as §1
0.1 μM ATX-II was omitted from the vehicle control solution used during initial gigaohm seal formation, transition to whole-cell patch clamp configuration and preliminary baseline recording before activation of late Nav1.5 current with 0.1 μM ATX-II. […] Positive Control Article: • Name: Ranolazine dihydrochloride • Source: Tocris • Batch Number: 2A/215231 • Molecular Weight: 509.47 g/mol • Purity: 98.7% • Storage Conditions: Room temperature • Rationale for Selection: Previous results have shown that 100 μM ranolazine dihydrochloride inhibits INa,L by approximately 85% End Blocker • Name: Lidocaine • Source: Sigma-Aldrich • Lot Number: MKBX2132V • Molecular Weight (g/mol): 234.34 • Storage Conditions: Room temperature • Rationale for Selection: Lidocaine is an inhibitor of peak hNav1.5 and late hNav1.5 currents. Each recording will end with application of 2 mM lidocaine to determine the amplitude of endogenous currents. […]
Electrophysiological Procedures: Cells were superfused with vehicle control solution without ATX-II (HB-PS+0.3% DMSO) until after whole-cell configuration was achieved and a stable baseline current was recorded. […]

hERG potassium channel = hERG potassium channel (Homo sapiens, UniProt Q12809); experiment: in vitro; details: human, pH 7.4
Description: Each cell acted as its own control.
Temperature was measured using a thermistor probe in the recording chamber.

[2] = biological target: T1, late hNav1.5 channel current; details: Oliveira, et al., J. Biol. Chem. 279 (2004); read-out: EC50 for increase of INa,L; cited from earlier work
[3] = as stated by the drug label; cited from earlier work

T1 sequence (Q14524 whole entry): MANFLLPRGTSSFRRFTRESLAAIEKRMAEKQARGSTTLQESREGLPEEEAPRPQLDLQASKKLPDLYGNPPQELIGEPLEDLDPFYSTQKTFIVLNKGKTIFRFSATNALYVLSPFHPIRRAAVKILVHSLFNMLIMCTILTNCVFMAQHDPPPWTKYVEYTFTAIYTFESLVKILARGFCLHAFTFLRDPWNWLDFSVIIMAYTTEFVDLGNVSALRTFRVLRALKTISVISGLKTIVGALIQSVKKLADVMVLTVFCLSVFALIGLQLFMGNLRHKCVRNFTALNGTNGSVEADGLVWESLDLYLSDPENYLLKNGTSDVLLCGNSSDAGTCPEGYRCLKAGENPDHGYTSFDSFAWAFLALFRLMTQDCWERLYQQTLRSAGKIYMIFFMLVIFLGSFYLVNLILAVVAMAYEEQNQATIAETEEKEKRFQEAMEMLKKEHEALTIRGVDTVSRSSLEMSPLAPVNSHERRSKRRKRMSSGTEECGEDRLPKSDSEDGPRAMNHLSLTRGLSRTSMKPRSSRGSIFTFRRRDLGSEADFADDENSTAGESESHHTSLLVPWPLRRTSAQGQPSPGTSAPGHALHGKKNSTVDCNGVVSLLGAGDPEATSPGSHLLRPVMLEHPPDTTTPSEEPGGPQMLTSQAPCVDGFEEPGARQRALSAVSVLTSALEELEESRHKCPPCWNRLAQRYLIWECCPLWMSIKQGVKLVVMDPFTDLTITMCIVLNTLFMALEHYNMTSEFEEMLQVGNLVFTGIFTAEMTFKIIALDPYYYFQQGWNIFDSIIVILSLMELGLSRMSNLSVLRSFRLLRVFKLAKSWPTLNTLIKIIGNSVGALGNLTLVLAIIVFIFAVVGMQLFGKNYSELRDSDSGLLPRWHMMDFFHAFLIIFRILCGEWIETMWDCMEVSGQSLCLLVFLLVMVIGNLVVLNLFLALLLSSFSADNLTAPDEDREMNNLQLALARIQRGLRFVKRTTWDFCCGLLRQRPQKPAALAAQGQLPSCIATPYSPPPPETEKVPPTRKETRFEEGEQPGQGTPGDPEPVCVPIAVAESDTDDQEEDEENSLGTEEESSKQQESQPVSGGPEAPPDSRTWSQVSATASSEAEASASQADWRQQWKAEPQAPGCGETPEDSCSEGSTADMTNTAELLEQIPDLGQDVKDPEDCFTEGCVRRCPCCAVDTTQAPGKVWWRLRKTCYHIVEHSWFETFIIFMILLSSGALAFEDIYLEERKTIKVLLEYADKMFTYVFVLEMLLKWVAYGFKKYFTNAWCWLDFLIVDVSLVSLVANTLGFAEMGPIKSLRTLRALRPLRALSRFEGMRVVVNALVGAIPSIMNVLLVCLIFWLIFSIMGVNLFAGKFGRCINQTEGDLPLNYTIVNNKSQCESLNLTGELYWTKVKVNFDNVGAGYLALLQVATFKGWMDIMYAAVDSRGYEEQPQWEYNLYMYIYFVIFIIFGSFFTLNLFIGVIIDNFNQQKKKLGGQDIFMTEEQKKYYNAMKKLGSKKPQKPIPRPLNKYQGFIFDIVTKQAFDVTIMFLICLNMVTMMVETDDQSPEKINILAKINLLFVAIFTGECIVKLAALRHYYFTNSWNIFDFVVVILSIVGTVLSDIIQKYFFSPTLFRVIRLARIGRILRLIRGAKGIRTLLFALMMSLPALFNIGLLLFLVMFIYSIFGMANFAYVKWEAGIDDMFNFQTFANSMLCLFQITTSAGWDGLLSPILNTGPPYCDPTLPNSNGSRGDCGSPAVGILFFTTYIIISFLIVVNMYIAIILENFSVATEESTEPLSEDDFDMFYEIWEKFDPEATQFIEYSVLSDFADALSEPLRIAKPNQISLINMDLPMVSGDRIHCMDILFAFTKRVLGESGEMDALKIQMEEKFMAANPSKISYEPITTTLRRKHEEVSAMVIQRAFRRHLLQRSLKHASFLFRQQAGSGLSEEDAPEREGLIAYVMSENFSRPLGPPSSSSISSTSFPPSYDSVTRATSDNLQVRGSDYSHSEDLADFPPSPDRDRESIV
hERG potassium channel, sequence (Q12809 whole entry): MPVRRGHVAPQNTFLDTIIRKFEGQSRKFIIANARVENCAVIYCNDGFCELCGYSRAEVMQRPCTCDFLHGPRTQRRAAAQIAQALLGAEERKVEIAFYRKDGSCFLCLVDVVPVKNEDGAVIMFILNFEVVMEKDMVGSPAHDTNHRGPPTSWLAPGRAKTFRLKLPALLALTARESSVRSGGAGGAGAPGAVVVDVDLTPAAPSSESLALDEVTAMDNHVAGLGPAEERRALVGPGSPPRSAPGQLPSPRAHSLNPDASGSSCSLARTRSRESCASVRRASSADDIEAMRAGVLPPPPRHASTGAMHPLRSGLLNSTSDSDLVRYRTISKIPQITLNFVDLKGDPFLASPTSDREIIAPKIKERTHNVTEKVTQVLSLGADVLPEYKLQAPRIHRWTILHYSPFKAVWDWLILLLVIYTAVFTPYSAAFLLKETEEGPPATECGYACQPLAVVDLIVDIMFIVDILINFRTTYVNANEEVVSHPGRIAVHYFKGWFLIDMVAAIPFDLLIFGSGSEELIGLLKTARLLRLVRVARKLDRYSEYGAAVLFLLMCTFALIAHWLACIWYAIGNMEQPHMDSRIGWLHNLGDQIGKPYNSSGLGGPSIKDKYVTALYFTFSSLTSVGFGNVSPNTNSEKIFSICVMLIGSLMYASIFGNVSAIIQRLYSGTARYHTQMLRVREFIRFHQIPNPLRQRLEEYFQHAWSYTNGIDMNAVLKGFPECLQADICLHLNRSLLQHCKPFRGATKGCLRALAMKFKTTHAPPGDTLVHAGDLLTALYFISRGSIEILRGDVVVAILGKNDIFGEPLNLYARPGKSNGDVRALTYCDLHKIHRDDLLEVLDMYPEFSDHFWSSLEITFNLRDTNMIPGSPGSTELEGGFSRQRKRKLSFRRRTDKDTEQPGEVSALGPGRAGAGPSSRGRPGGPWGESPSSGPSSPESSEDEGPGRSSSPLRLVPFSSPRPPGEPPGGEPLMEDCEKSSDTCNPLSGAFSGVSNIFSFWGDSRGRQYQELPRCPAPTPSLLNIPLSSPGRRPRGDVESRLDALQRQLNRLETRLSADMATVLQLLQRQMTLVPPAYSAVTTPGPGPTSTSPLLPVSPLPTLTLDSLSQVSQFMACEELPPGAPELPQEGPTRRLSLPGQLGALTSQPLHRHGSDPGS

With COC(=O)C1=C(C)NC(C)=C(C(=O)OC)C1c1ccccc1[N+](=O)[O-] [nifedipine, reference compound] the inhibition at 0.1 µM (hCav1.2/β2/α2δ channels; 0.1 μM, positive control, previous results, read-out: inhibition of hCav1.2 current) was ~90%.

In the case of COc1ccccc1OCC(O)CN1CCN(CC(=O)Nc2c(C)cccc2C)CC1 (stereo not shown) [ranolazine dihydrochloride, Ranolazine dihydrochloride], the inhibition at 100 µM ([1]; HEK293, 100 μM, positive control, previous results, read-out: inhibition of INa,L) is reported as ~85%.

COc1cc(N)c(Cl)cc1C(=O)NC1CCN(CCCOc2ccc(F)cc2)CC1OC (stereo not shown) [cisapride, reference compound] gave an inhibition at 0.09 µM (hERG potassium channel) of ~80%.

For “ATX-II: "Late hNav1.5 Current Agonist"; "ATX-II increases INa,L"; Molecular Weight 4935; Source: Alomone Labs”, the EC50 [2] is given as ~0.004 µM.

In the case of CC(C)COc1ccc(CNC(=O)N(Cc2ccc(F)cc2)C2CCN(C)CC2)cc1 [Pimavanserin], the IC50 ([1]; read-out: NaV 1.5 IC50) is given as 1.2 µM, the IC50 (hCav1.2/β2/α2δ channels; manual patch clamp, room temperature, read-out: CaV 1.2 IC50) is given as 1.2 µM and the “effect on QT interval” value [3] is given as “prolongs the QT interval”.
